The source of these data is paper PMC2923275 (Biochemical pharmacology, 2010).

In series [1] the test system is wild type (RH) strain of T. gondii. Put plainly: Anti-toxoplasmic activity in tissue culture. The format is cell-based, Toxoplasma gondii. To be noted: wild type (RH) in human fibroblasts.
The test system of series [2] is adenosine kinase deficient (TgAK^-3) strain of T. gondii. Put plainly: Anti-toxoplasmic activity in tissue culture. The format is cell-based, Toxoplasma gondii. To be noted: TgAK^-3 in human fibroblasts.
For series [3], the system named is uninfected human foreskin fibroblasts. The series is described as follows: Host toxicity, MTT assay on uninfected host cells. To be noted: infection: None. In general terms: Tetrazolium dyes change colour on reduction, which living cells bring about.

For `OCC1CC(n2cnc3c(SCc4ccc(Cl)c(Cl)c4)ncnc32)C(O)C1O` (stereo not shown) [Compound 19, Carbocyclic 6-(m,p-dichlorobenzylthio)inosine], the “percent survival of parasite” value worked out at 59.7% in series [1] (5 μM compound); 17.8% in series [1] (10 μM compound); 8.3% in series [1] (25 μM compound); 1.5% in series [1] (50 μM compound); 100% in series [2] (5 μM compound); 100% in series [2] (10 μM compound). Moreover, the “percent survival of parasite” value in series [2] (25 μM compound) and in series [2] (50 μM compound) was 100% throughout. The “host-toxicity (survival of uninfected host cells)” value (from here on “host-toxicity”) in series [3] (5 μM compound) was found to be 100%; in series [3] (10 μM compound), 100%; in series [3] (25 μM compound), 100%; in series [3] (50 μM compound) it was 73.1%.

Consider `OCC1CC(n2cnc3c(SCc4cccc(C(F)(F)F)c4)ncnc32)C(O)C1O` (stereo not shown) [Compound 6, Carbocyclic 6-(m-trifluoromethylbenzylthio)inosine], for which the “percent survival of parasite” value in series [1] (5 μM compound) stood at 79.0%; in series [1] (10 μM compound), 47.1%; in series [1] (25 μM compound), 6.3%; in series [1] (50 μM compound), 1.0%; in series [2] (5 μM compound), 100%; in series [2] (10 μM compound) it was 100%. Further, the “percent survival of parasite” value in series [2] (25 μM compound) and in series [2] (50 μM compound) was 100% in each case. The “host-toxicity” value in series [3] (5 μM compound) came out at 100%; in series [3] (10 μM compound), 100%; in series [3] (25 μM compound), 100%; in series [3] (50 μM compound), 90.6%.

On to `CCc1nc(N)nc(N)c1-c1ccc(Cl)cc1` [Compound 24, Pyrimethamine, reference compound], for which the “percent survival of parasite” value in series [1] (5 μM compound) is listed as 98.9%; in series [1] (10 μM compound), 55.3%; in series [1] (25 μM compound), 25.1%; in series [1] (50 μM compound), 23.2%. Also, the “host-toxicity” value came to 101% in series [3] (5 μM compound), 100% in series [3] (10 μM compound), 108% in series [3] (25 μM compound) and 108% in series [3] (50 μM compound).

`OCC1CC(n2cnc3c(SCc4c(F)cccc4Cl)ncnc32)C(O)C1O` (stereo not shown) [Compound 20, Carbocyclic 6-(o-chloro-o-fluorobenzylthio)inosine]: the “percent survival of parasite” value in series [1] (5 μM compound) stood at 56.3%; in series [1] (10 μM compound), 15.6%; in series [1] (25 μM compound) it was 3.7%; in series [1] (50 μM compound), 0.0%; in series [2] (5 μM compound), 100%; in series [2] (10 μM compound), 100%. In addition, the “percent survival of parasite” value in series [2] (25 μM compound) and in series [2] (50 μM compound) was 100% in each case. For the same molecule, the “host-toxicity” value in series [3] (5 μM compound), in series [3] (10 μM compound), in series [3] (25 μM compound) and in series [3] (50 μM compound) was 100% in each case.

For the molecule `O=[N+]([O-])c1ccc(CSc2ncnc3c2ncn3C2CC(CO)C(O)C2O)cc1` (stereo not shown) [Compound 12, Carbocyclic 6-(p-nitrobenzylthio)inosine], the “percent survival of parasite” value in series [1] (5 μM compound) came out at 100%; in series [1] (10 μM compound), 97.6%; in series [1] (25 μM compound), 44.2%; in series [1] (50 μM compound), 16.8%; in series [2] (5 μM compound) it was 100%; in series [2] (10 μM compound), 100%. In addition, the “percent survival of parasite” value in series [2] (25 μM compound) and in series [2] (50 μM compound) was 100% in each case. Moreover, the “host-toxicity” value in series [3] (5 μM compound), in series [3] (10 μM compound), in series [3] (25 μM compound) and in series [3] (50 μM compound) was 100% each time.

Consider `OCC1CC(n2cnc3c(SCc4ccc(Br)cc4)ncnc32)C(O)C1O` (stereo not shown) [Compound 10, Carbocyclic 6-(p-bromobenzylthio)inosine], for which the “percent survival of parasite” value in series [1] (5 μM compound) was found to be 77.1%; in series [1] (10 μM compound) it was 47.3%; in series [1] (25 μM compound) it was 1.2%; in series [1] (50 μM compound), 1.0%; in series [2] (5 μM compound), 100%; in series [2] (10 μM compound), 100%. The “percent survival of parasite” value in series [2] (25 μM compound) and in series [2] (50 μM compound) was 100% throughout. The “host-toxicity” value in series [3] (5 μM compound), in series [3] (10 μM compound), in series [3] (25 μM compound) and in series [3] (50 μM compound) was 100% throughout.

`Nc1ccc(S(=O)(=O)Nc2ncccn2)cc1` [Compound 23, Sulfadiazine, reference compound]: the “percent survival of parasite” value is 92.9% in series [1] (5 μM compound), 58.0% in series [1] (10 μM compound), 53.4% in series [1] (25 μM compound) and 46.3% in series [1] (50 μM compound). The “host-toxicity” value in series [3] (5 μM compound) amounted to 98.2%; in series [3] (10 μM compound), 99.8%; in series [3] (25 μM compound), 99.8%; in series [3] (50 μM compound), 102%.

In the case of `N#Cc1ccc(CSc2ncnc3c2ncn3C2CC(CO)C(O)C2O)cc1` (stereo not shown) [Compound 13, Carbocyclic 6-(p-cyanobenzylthio)inosine], the “percent survival of parasite” value in series [1] (5 μM compound) was found to be 100%; in series [1] (10 μM compound), 100%; in series [1] (25 μM compound), 48.8%; in series [1] (50 μM compound) it was 17.8%; in series [2] (5 μM compound) it was 100%; in series [2] (10 μM compound) it was 100%. Further, the “percent survival of parasite” value in series [2] (25 μM compound) and in series [2] (50 μM compound) was 100% in each case. Further, the “host-toxicity” value in series [3] (5 μM compound), in series [3] (10 μM compound), in series [3] (25 μM compound) and in series [3] (50 μM compound) was 100% each time.

For `Cc1ccc(CSc2ncnc3c2ncn3C2CC(CO)C(O)C2O)c(C)c1C` (stereo not shown) [Compound 21, Carbocyclic 6-(o,m,p-trimethylbenzylthio)inosine], the “percent survival of parasite” value in series [1] (5 μM compound) is recorded as 71.0%; in series [1] (10 μM compound), 32.7%; in series [1] (25 μM compound), 0.0%; in series [1] (50 μM compound) it was 0.0%; in series [2] (5 μM compound) it was 100%; in series [2] (10 μM compound), 100%. Besides, the “percent survival of parasite” value in series [2] (25 μM compound) and in series [2] (50 μM compound) was 100% throughout. The “host-toxicity” value in series [3] (5 μM compound) worked out at 100%; in series [3] (10 μM compound) it was 100%; in series [3] (25 μM compound), 90.6%; in series [3] (50 μM compound), 93.2%.

As to `OCC1CC(n2cnc3c(SCc4ccc(OC(F)(F)F)cc4)ncnc32)C(O)C1O` (stereo not shown) [Compound 16, Carbocyclic 6-(p-trifluoromethoxybenzylthio)inosine], the “percent survival of parasite” value in series [1] (5 μM compound) came to 87.3%; in series [1] (10 μM compound), 53.6%; in series [1] (25 μM compound) it was 8.1%; in series [1] (50 μM compound) it was 0.0%; in series [2] (5 μM compound) it was 100%; in series [2] (10 μM compound), 100%. The “percent survival of parasite” value in series [2] (25 μM compound) and in series [2] (50 μM compound) was 100% each time. Also, the “host-toxicity” value in series [3] (5 μM compound) was 100%; in series [3] (10 μM compound), 98.2%; in series [3] (25 μM compound), 96.7%; in series [3] (50 μM compound), 89.3%.

On to `Cc1cccc(CSc2ncnc3c2ncn3C2CC(CO)C(O)C2O)c1` (stereo not shown) [Compound 5, Carbocyclic 6-(m-methylbenzylthio)inosine], for which the “percent survival of parasite” value in series [1] (5 μM compound) was 88.3%; in series [1] (10 μM compound), 64.7%; in series [1] (25 μM compound) it was 13.7%; in series [1] (50 μM compound), 1.2%; in series [2] (5 μM compound), 100%; in series [2] (10 μM compound), 100%. The “percent survival of parasite” value in series [2] (25 μM compound) and in series [2] (50 μM compound) was 100% each time. The “host-toxicity” value in series [3] (5 μM compound) came to 100%; in series [3] (10 μM compound) it was 100%; in series [3] (25 μM compound), 100%; in series [3] (50 μM compound), 96.1%.

On to `OCC1CC(n2cnc3c(SCc4ccc(Cl)cc4Cl)ncnc32)C(O)C1O` (stereo not shown) [Compound 18, Carbocyclic 6-(o,p-dichlorobenzylthio)inosine], for which the “percent survival of parasite” value came to 84.4% in series [1] (5 μM compound); 45.1% in series [1] (10 μM compound); 0.0% in series [1] (25 μM compound); 0.0% in series [1] (50 μM compound); 100% in series [2] (5 μM compound); 100% in series [2] (10 μM compound). For the same molecule, the “percent survival of parasite” value in series [2] (25 μM compound) and in series [2] (50 μM compound) was 100% throughout. In addition, the “host-toxicity” value was determined as 100% in series [3] (5 μM compound), 100% in series [3] (10 μM compound), 100% in series [3] (25 μM compound) and 90.6% in series [3] (50 μM compound).
